The values below come from patent publication US20260199323A1, “LIGAND COMPOUNDS FOR E3 UBIQUITIN LIGASE, PROTEIN DEGRADERS DEVELOPED ON BASIS OF LIGAND COMPOUNDS, AND USES THEREOF” (GLUETACS THERAPEUTICS (SHANGHAI) CO., LTD., priority 2021, published 2026).

SMILES strings stand for the structures. Read-outs that look alike come from different tables or passages of the source.

Assay [1] concerns LNcap. The experiment in a line: CCK-8 tumor cell proliferation, LNcap. The assay is classed as cell-based, Human. The protocol:
(§1) The tumor cells used herein were cultured in a cell culture medium listed in table 4 at 37° C. in an incubator with 5% CO2. Prior to experimentation, all cells used were correctly identified by STR profiling, and tested negative for mycoplasma through routine screenings.
(§2) IC50 values of the compounds of the present disclosure (including the compounds in Tables 1 and 3, and compounds of examples) were measured using the Meilun Cell Counting Kit-8 kit from Dalian Meilun Biotech Co., Ltd. Assay details are as follows: tumor cells were seeded in a 96-well plate at a density listed in Table 5. After 24 h, 100 μL of the inoculated cells were treated with 0.5 μL of the compounds of the present disclosure (including the compounds in Tables 1 and 3, and compounds of examples) at 10 different successively decreasing concentrations (starting at the highest concentration of 10 μM; 5-fold serial dilutions). After the cells were treated with the compounds of the present disclosure for a period of time, the cell viability detection reagent was added to the culture medium for cell viability assessment according to the instructions provided with the CCK-8 kit. […] The growth inhibition of the compounds of the present disclosure on cells was plotted by Prism Graphpad software, and the IC50 values of the compounds of the present disclosure were calculated therefrom.

For assay [2], the system named is SR. As to the kind of experiment: CCK-8 tumor cell proliferation, SR. In kind it is cell-based, Human. The following applies: Homo sapiens; Table 20, BCL-2 inhibitor based; SR; read-out: IC50 inhibiting proliferation of tumor cells, SR. The essentials:
(§3)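 Cell viability (CCK-8) after compound exposure; IC50 calculated. Cells seeded, treated after 24 h, maximum dose 10 μM, 5-fold serial dilutions over 10 concentrations.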

Assay [3] concerns MDA-MB-231. As to the kind of experiment: CCK-8 tumor cell proliferation, MDA-MB-231. The following applies: Homo sapiens; Table 20, BCL-2 inhibitor based; MDA-MB-231; read-out: IC50 inhibiting proliferation of tumor cells, MDA-MB-231. In kind it is cell-based, Human. The method, boiled down: as §3
In assay [4] the test system is MM.1S. As to the kind of experiment: CCK-8 tumor cell proliferation, MM.1S. In kind it is cell-based. The settings on record: Homo sapiens, MM1.S; Table 20, BCL-2 inhibitor based; MM.1S; read-out: IC50 inhibiting proliferation of tumor cells, MM.1S. The method, boiled down:
as §3

In assay [5] the test system is CCRF-CEM. The experiment in a line: CCK-8 tumor cell proliferation, CCRF-CEM. In kind it is cell-based, Human. The settings on record: CCRF-CEM, read-out: IC50 inhibiting proliferation of tumor cells, CCRF-CEM. The essentials:
as §3

Assay [6] deals with MM.1R. As to the kind of experiment: CCK-8 tumor cell proliferation, MM.1R. The assay is classed as cell-based. The following applies: Table 20, BCL-2 inhibitor based, read-out: IC50 inhibiting proliferation of tumor cells, MM.1R. The essentials: as §3
Assay [7] relates to HCC827. As to the kind of experiment: CCK-8 tumor cell proliferation, HCC827. In kind it is cell-based, Human. The following applies: Homo sapiens; Table 20, BCL-2 inhibitor based; HCC827; read-out: IC50 inhibiting proliferation of tumor cells, HCC827. As to the method: The tumor cells used herein were cultured in a cell culture medium listed in table 4 at 37° C. in an incubator with 5% CO2.
as §2, with “After” for “IC50 values of the compounds of the present disclosure (including the compounds in Tables 1 and 3, and compounds of examples) were measured using the Meilun Cell Counting Kit-8 kit from Dalian Meilun Biotech Co., Ltd. Assay details are as follows: tumor cells were seeded in a 96-well plate at a density listed in Table 5. After”

Assay [8] relates to MV-4-11. As to the kind of experiment: CCK-8 tumor cell proliferation, MV-4-11. The assay is classed as cell-based, Human. The following applies: Homo sapiens, MV4-11; Table 19, IRAK4 inhibitor based; MV-4-11; read-out: IC50 inhibiting proliferation of tumor cells, MV-4-11. The protocol: as §1, §2
Assay [9] has as its system SU-DHL-4. As to the kind of experiment: CCK-8 tumor cell proliferation, SU-DHL-4. The following applies: Table 19, IRAK4 inhibitor based, read-out: IC50 inhibiting proliferation of tumor cells, SU-DHL-4. In kind it is cell-based, Human. As to the method:
as §1, §2

For assay [10], the system named is SW620. As to the kind of experiment: CCK-8 tumor cell proliferation, SW620. In kind it is cell-based, Human. The following applies: Table 19, IRAK4 inhibitor based, SW620, read-out: IC50 inhibiting proliferation of tumor cells, SW620. The method, boiled down: as §3
Assay [11] concerns Mino. As to the kind of experiment: CCK-8 tumor cell proliferation, Mino. In kind it is cell-based, Human. The following applies: Homo sapiens; Table 19, IRAK4 inhibitor based; Mino; read-out: IC50 inhibiting proliferation of tumor cells, Mino. The essentials: as §3
Assay [12] deals with CAL-62. As to the kind of experiment: CCK-8 tumor cell proliferation, CAL-62. The following applies: Table 19, IRAK4 inhibitor based, CAL-62, read-out: IC50 inhibiting proliferation of tumor cells, CAL-62. In kind it is cell-based, Human. The essentials:
as §3

In assay [13] the test system is Jurkat. The experiment in a line: CCK-8 tumor cell proliferation, Jurkat. In kind it is cell-based, Human. The settings on record: Table 19, IRAK4 inhibitor based, read-out: IC50 inhibiting proliferation of tumor cells, Jurkat. The method, boiled down: as §3
Where [14] appears, read: Homo sapiens, Table 19, IRAK4 inhibitor based, Lncap, read-out: IC50 inhibiting proliferation of tumor cells, Lncap.
Where [15] appears, read: Homo sapiens, Table 19, IRAK4 inhibitor based.

As to `CC1(C)CCC(c2ccc(Cl)cc2)=C(CN2CCN(c3ccc(C(=O)NS(=O)(=O)c4ccc(N[C@H](CCN5CCN(Cc6cc(F)c7c(c6)CN(C6CCC(=O)NC6=O)C7=O)CC5)CSc5ccccc5)c(S(=O)(=O)C(F)(F)F)c4)cc3)CC2)C1` (stereo partly drawn) [GT-03479, 4-(4-((4′-chloro-4,4-dimethyl-3,4,5,6-tetrahydro-[1,1′-biphenyl]-2-yl)methyl)piperazin-1-yl)-N-((4-(((2R)-4-(4-((2-(2,6-dioxopiperidin-3-yl)-7-fluoro-1-oxoisoindolin-5-yl)methyl)piperazin-1-yl)-1-(phenylthio)butan-2-yl)amino)-3-((trifluoromethyl)sulfonyl)phenyl)sulfonyl)benzamide], the IC50 was below 0.05 µM in assay [1] (Homo sapiens, Table 20, BCL-2 inhibitor based, LNcap, read-out: IC50 inhibiting proliferation of tumor cells, LNcap); below 0.05 µM in [2]; below 0.05 µM in [3]; below 0.05 µM in assay [4]; below 0.05 µM in [5] (Homo sapiens, Table 20, BCL-2 inhibitor based); below 0.05 µM in [6]. Further, in assay [7], the IC50 is 0.1 to 0.5 µM.

As to `O=C1CCC(N2Cc3cc(CN4CCC(n5cc(NC(=O)c6cnn7ccc(N8CCOCC8)nc67)c(C(F)F)n5)CC4)cc(F)c3C2=O)C(=O)N1` (stereo not shown) [GT-03812, N-(3-(difluoromethyl)-1-(1-((2-(2,6-dioxopiperidin-3-yl)-7-fluoro-1-oxoisoindolin-5-yl)methyl)piperidin-4-yl)-1H-pyrazol-4-yl)-5-morpholinopyrazolo[1,5-a]pyrimidine-3-carboxamide], the IC50 was in the range of 0.1 to 0.5 µM in [8]; 1 to 5 µM in [9] (Homo sapiens); 1 to 5 µM in assay [10] (Homo sapiens, SW-620); 0.1 to 0.5 µM in [11].

On to `O=C1CCC(N2C(=O)c3ccc(CN4CCC(n5cc(NC(=O)c6cnn7ccc(N8CCOCC8)nc67)c(C(F)F)n5)CC4)cc3C2=O)C(=O)N1` (stereo not shown) [GT-03815, N-(3-(difluoromethyl)-1-(1-((2-(2,6-dioxopiperidin-3-yl)-1,3-dioxoisoindolin-5-yl)methyl)piperidin-4-yl)-1H-pyrazol-4-yl)-5-morpholinopyrazolo[1,5-a]pyrimidine-3-carboxamide], for which the IC50 in assay [9] (Homo sapiens) was in the range of 5 to 10 µM; in [11], 1 to 5 µM.

As to `CC(C)Nc1cc(-n2ccc3cc(C#N)cnc32)ncc1C(=O)N[C@H]1CC[C@H](C(=O)NCc2ccc3c(c2)CN(C2CCC(=O)NC2=O)C3=O)CC1` (stereo partly shown) [GT-04077, 6-(5-cyano-1H-pyrrolo[2,3-b]pyridin-1-yl)-N-((1r,4r)-4-(((2-(2,6-dioxopiperidin-3-yl)-1-oxoisoindolin-5-yl)methyl)carbamoyl)cyclohexyl)-4-(isopropylamino)nicotinamide], the IC50 was below 0.05 µM in assay [12]; 0.5 to 1 µM in assay [9]; 0.1 to 0.5 µM in [1] (Table 19, IRAK4 inhibitor based, Lncap, read-out: IC50 inhibiting proliferation of tumor cells, Lncap); 0.1 to 0.5 µM in [10]; below 0.05 µM in assay [5] (Table 19, IRAK4 inhibitor based); below 0.05 µM in assay [13].

`O=C1CCC(N2Cc3c(ccc(CN4CCC(n5cc(NC(=O)c6coc(-c7ccnc(NCC(F)(F)F)c7)n6)c(C(F)F)n5)CC4)c3F)C2=O)C(=O)N1` (stereo not shown) [GT-04098, N-(3-(difluoromethyl)-1-(1-((2-(2,6-dioxopiperidin-3-yl)-4-fluoro-1-oxoisoindolin-5-yl)methyl)piperidin-4-yl)-1H-pyrazol-4-yl)-2-(2-((2,2,2-trifluoroethyl)amino)pyridin-4-yl)oxazole-4-carboxamide]: the IC50 in [12] (Homo sapiens) was below 0.05 µM; in assay [9] (Homo sapiens) it was below 0.05 µM; in [1] (setting [14]), below 0.05 µM; in assay [10] (Homo sapiens, SW-620), below 0.05 µM; in [5] (setting [15]) it was below 0.05 µM; in assay [13] (Homo sapiens) it was below 0.05 µM.

Turning to `O=C1CCC(N2Cc3cc(CN4CCC(n5cc(NC(=O)c6coc(-c7ccnc(NCC(F)(F)F)c7)n6)c(C(F)F)n5)CC4)cc(F)c3C2=O)C(=O)N1` (stereo not shown) [GT-04099, N-(3-(difluoromethyl)-1-(1-((2-(2,6-dioxopiperidin-3-yl)-7-fluoro-1-oxoisoindolin-5-yl)methyl)piperidin-4-yl)-1H-pyrazol-4-yl)-2-(2-((2,2,2-trifluoroethyl)amino)pyridin-4-yl)oxazole-4-carboxamide], the IC50 in [12] (Homo sapiens) was below 0.05 µM; in [9] (Homo sapiens), 0.1 to 0.5 µM; in assay [1] (setting [14]) it was below 0.05 µM; in assay [10] (Homo sapiens, SW-620), below 0.05 µM; in assay [5] (setting [15]) it was below 0.05 µM; in assay [13] (Homo sapiens), below 0.05 µM.

As to `O=C1CCC(N2Cc3cc(CN4CCC(n5cc(NC(=O)c6coc(-c7ccnc(NCC(F)(F)F)c7)n6)c(C(F)F)n5)CC4)ccc3C2=O)C(=O)N1` (stereo not shown) [GT-04120, N-(3-(difluoromethyl)-1-(1-((2-(2,6-dioxopiperidin-3-yl)-1-oxoisoindolin-5-yl)methyl)piperidin-4-yl)-1H-pyrazol-4-yl)-2-(2-((2,2,2-trifluoroethyl)amino)pyridin-4-yl)oxazole-4-carboxamide], the IC50 in assay [12] (Homo sapiens) was below 0.05 µM; in [9] (Homo sapiens), below 0.05 µM; in [1] (setting [14]), below 0.05 µM; in [10] (Homo sapiens, SW-620), below 0.05 µM; in [5] (setting [15]) it was below 0.05 µM; in [13] (Homo sapiens), below 0.05 µM.

As to `O=C1CCC(N2Cc3cc(CN4CCC(n5cc(NC(=O)c6coc(-c7ccnc(NCC8CC8)c7)n6)c(C(F)F)n5)CC4)ccc3C2=O)C(=O)N1` (stereo not shown) [GT-04153, 2-(2-((cyclopropylmethyl)amino)pyridin-4-yl)-N-(3-(difluoromethyl)-1-(1-((2-(2,6-dioxopiperidin-3-yl)-1-oxoisoindolin-5-yl)methyl)piperidin-4-yl)-1H-pyrazol-4-yl)oxazole-4-carboxamide], the IC50 was below 0.05 µM in assay [12] (Homo sapiens); below 0.05 µM in assay [9] (Homo sapiens); below 0.05 µM in assay [1] (setting [14]); below 0.05 µM in assay [10] (Homo sapiens, SW-620); below 0.05 µM in assay [5] (setting [15]); below 0.05 µM in [13] (Homo sapiens).
